“And” between values parts separate entries of the source, which are not always exact repeats. Equal values may be shown once. Numbers after ± are expanded uncertainties.
Conditions: Liquid

CCCOC(=O)CCCCC(=O)OCCC [dipropyl hexanedioate]
Conditions | viscosity
303.14 K, 1110 kPa, Vibrating wire viscometry | 3.606 ± 0.06 mPa·s and 3.607 ± 0.06 mPa·s
303.14 K, 1140 kPa, Vibrating wire viscometry | 3.609 ± 0.06 mPa·s
303.14 K, 5210 kPa, Vibrating wire viscometry | 3.78 ± 0.063 mPa·s
303.14 K, 5220 kPa, Vibrating wire viscometry | 3.781 ± 0.063 mPa·s and 3.776 ± 0.063 mPa·s
303.14 K, 18280 kPa, Vibrating wire viscometry | 4.327 ± 0.072 mPa·s
303.14 K, 18290 kPa, Vibrating wire viscometry | 4.33 ± 0.072 mPa·s and 4.331 ± 0.072 mPa·s
303.15 K, 2810 kPa, Vibrating wire viscometry | 3.653 ± 0.061 mPa·s and 3.654 ± 0.061 mPa·s
303.15 K, 2820 kPa, Vibrating wire viscometry | 3.657 ± 0.061 mPa·s
303.15 K, 10310 kPa, Vibrating wire viscometry | 3.975 ± 0.066 mPa·s
303.15 K, 10320 kPa, Vibrating wire viscometry | 3.972 ± 0.066 mPa·s
303.15 K, 15230 kPa, Vibrating wire viscometry | 4.218 ± 0.07 mPa·s
303.15 K, 15260 kPa, Vibrating wire viscometry | 4.213 ± 0.07 mPa·s
303.15 K, 15310 kPa, Vibrating wire viscometry | 4.218 ± 0.07 mPa·s
313.15 K, 2710 kPa, Vibrating wire viscometry | 2.934 ± 0.049 mPa·s and 2.931 ± 0.049 mPa·s
313.15 K, 15330 kPa, Vibrating wire viscometry | 3.354 ± 0.056 mPa·s and 3.356 ± 0.056 mPa·s and 3.358 ± 0.056 mPa·s
313.15 K, 18290 kPa, Vibrating wire viscometry | 3.441 ± 0.057 mPa·s and 3.443 ± 0.057 mPa·s
313.16 K, 1200 kPa, Vibrating wire viscometry | 2.882 ± 0.048 mPa·s
313.16 K, 1210 kPa, Vibrating wire viscometry | 2.879 ± 0.048 mPa·s
313.16 K, 1220 kPa, Vibrating wire viscometry | 2.882 ± 0.048 mPa·s
313.16 K, 2700 kPa, Vibrating wire viscometry | 2.933 ± 0.049 mPa·s
313.16 K, 5180 kPa, Vibrating wire viscometry | 3.01 ± 0.05 mPa·s
313.16 K, 5190 kPa, Vibrating wire viscometry | 3.016 ± 0.05 mPa·s
313.16 K, 10460 kPa, Vibrating wire viscometry | 3.178 ± 0.053 mPa·s
313.16 K, 10480 kPa, Vibrating wire viscometry | 3.176 ± 0.053 mPa·s
313.16 K, 10490 kPa, Vibrating wire viscometry | 3.177 ± 0.053 mPa·s
313.16 K, 18290 kPa, Vibrating wire viscometry | 3.445 ± 0.058 mPa·s
313.18 K, 101.33 kPa, Capillary tube (Ostwald / Ubbelohde) method | 2.888 ± 0.089 mPa·s
323.1 K, 101.33 kPa, Capillary tube (Ostwald / Ubbelohde) method | 2.352 ± 0.073 mPa·s
323.15 K, 1160 kPa, Vibrating wire viscometry | 2.359 ± 0.039 mPa·s
323.15 K, 1170 kPa, Vibrating wire viscometry | 2.356 ± 0.039 mPa·s
323.15 K, 1180 kPa, Vibrating wire viscometry | 2.36 ± 0.039 mPa·s
323.15 K, 15180 kPa, Vibrating wire viscometry | 2.729 ± 0.046 mPa·s
323.16 K, 2710 kPa, Vibrating wire viscometry | 2.409 ± 0.04 mPa·s and 2.408 ± 0.04 mPa·s
323.16 K, 2720 kPa, Vibrating wire viscometry | 2.412 ± 0.04 mPa·s
323.16 K, 5260 kPa, Vibrating wire viscometry | 2.464 ± 0.041 mPa·s
323.16 K, 5270 kPa, Vibrating wire viscometry | 2.462 ± 0.041 mPa·s
323.16 K, 15200 kPa, Vibrating wire viscometry | 2.731 ± 0.046 mPa·s
323.17 K, 10210 kPa, Vibrating wire viscometry | 2.598 ± 0.043 mPa·s
323.17 K, 10220 kPa, Vibrating wire viscometry | 2.597 ± 0.043 mPa·s
323.17 K, 18240 kPa, Vibrating wire viscometry | 2.814 ± 0.047 mPa·s
323.17 K, 18260 kPa, Vibrating wire viscometry | 2.816 ± 0.047 mPa·s
323.17 K, 18270 kPa, Vibrating wire viscometry | 2.812 ± 0.047 mPa·s
333.14 K, 2610 kPa, Vibrating wire viscometry | 2.006 ± 0.034 mPa·s
333.14 K, 2620 kPa, Vibrating wire viscometry | 2.009 ± 0.034 mPa·s
333.15 K, 2620 kPa, Vibrating wire viscometry | 2.009 ± 0.034 mPa·s
333.15 K, 5110 kPa, Vibrating wire viscometry | 2.05 ± 0.034 mPa·s and 2.052 ± 0.034 mPa·s
333.15 K, 5130 kPa, Vibrating wire viscometry | 2.052 ± 0.034 mPa·s
333.15 K, 15200 kPa, Vibrating wire viscometry | 2.274 ± 0.038 mPa·s
333.15 K, 15220 kPa, Vibrating wire viscometry | 2.273 ± 0.038 mPa·s
333.15 K, 18260 kPa, Vibrating wire viscometry | 2.339 ± 0.039 mPa·s
333.15 K, 18290 kPa, Vibrating wire viscometry | 2.338 ± 0.039 mPa·s
333.15 K, 18300 kPa, Vibrating wire viscometry | 2.343 ± 0.039 mPa·s
333.16 K, 1090 kPa, Vibrating wire viscometry | 1.975 ± 0.033 mPa·s
333.16 K, 1100 kPa, Vibrating wire viscometry | 1.979 ± 0.033 mPa·s
333.16 K, 1120 kPa, Vibrating wire viscometry | 1.979 ± 0.033 mPa·s
333.16 K, 10160 kPa, Vibrating wire viscometry | 2.167 ± 0.036 mPa·s
333.16 K, 10180 kPa, Vibrating wire viscometry | 2.163 ± 0.036 mPa·s
333.16 K, 10190 kPa, Vibrating wire viscometry | 2.165 ± 0.036 mPa·s
333.16 K, 15220 kPa, Vibrating wire viscometry | 2.273 ± 0.038 mPa·s
333.22 K, 101.33 kPa, Capillary tube (Ostwald / Ubbelohde) method | 1.97 ± 0.061 mPa·s
